Like-named read-outs stand apart in the source and are kept apart here.
Experiments:
[1] = test system: chondrocytes isolated from the sterna of 16-day-old chicken embryos; experiment: Determination of cell number of chondrocyte cultures; type: cell-based; conditions: induced for 24 hours; non-induced 41,000 cells/ml
Description: FIG. 7 is a comparative graph showing cell number after incubation of the non-induced cultures compared to cultures induced with hPTH (28-48) for 24 hours.
FIG. 1: In order to determine the incorporation of ^3 H-methylthymidine into total DNA the cells were cultivated on microtiter plates in M199 medium at a concentration of foetal calf serum (FCS) of less than 0.5% (by volume). The cell density of the chondrocytes that reacted to the addition of PTH with an increase in the incorporation of ^3 H-methylthymidine into the total DNA was from 1250 to 6000 cells/microtitre well (diameter 6 mm) at the time of plating-out. […] The incorporation of ^3 H-methylthymidine into the total DNA was determined as follows. After removing the radioactive medium, the adherent growing chondrocytes were washed with PBS and lysed in the microtitre wells. The total DNA was then precipitated under acid conditions at low temperature and transferred onto filter papers using a semi-automatic harvesting device. The rate of incorporation into total DNA could then be determined; cf. FIG. 1. […] The concentration for semi-maximum stimulation was from 9 to 15 nM for bPTH(1-84) and from 50 to 75 nM for the PTH fragments bPTH(1-34) and bPTH(3-34). In contrast, the PTH fragment hPTH(28-48), which, according to Adv. Protein Chemistry, 35 (1982) 323 ff.

renal adenylate cyclase = conditions: Adv. Protein Chemistry 35 (1982) 323 ff. (Potts et al.), cited from earlier work
[2] = test system: chondrocytes isolated from the sterna of 16-day-old chicken embryos; experiment: Incorporation of 3H-methylthymidine into total DNA of chicken embryo chondrocytes (Examples 1-3); type: cell-based
Excerpt: FIG. 1 is a graph showing the stimulation of chondrocyte DNA synthesis by the addition of PTH and PTH fragments; expressed as the ratio of the rate of incorporation of ^3 H-methylthymidine into the total DNA of the induced cultures to that of the untreated control cultures.
FIGS. 2-6 are graphs showing the dosage/effect curves for the mitogenic activity of PTH and PTH fragments;
FIG. 1: In order to determine the incorporation of ^3 H-methylthymidine into total DNA the cells were cultivated on microtiter plates in M199 medium at a concentration of foetal calf serum (FCS) of less than 0.5% (by volume). The cell density of the chondrocytes that reacted to the addition of PTH with an increase in the incorporation of ^3 H-methylthymidine into the total DNA was from 1250 to 6000 cells/microtitre well (diameter 6 mm) at the time of plating-out. […] The incorporation of ^3 H-methylthymidine into the total DNA was determined as follows. After removing the radioactive medium, the adherent growing chondrocytes were washed with PBS and lysed in the microtitre wells. The total DNA was then precipitated under acid conditions at low temperature and transferred onto filter papers using a semi-automatic harvesting device. The rate of incorporation into total DNA could then be determined; cf. FIG. 1. […]

ROS 17/2.8 cells = experiment: Inhibition of bPTH(1-34)-stimulated cAMP synthesis of intact ROS 17/2.8 cells; type: cell-based, rat; conditions: 30 nM hPTH(28-48) added to 100 nM bPTH(1-34); 1 mM IBMX; 10 min
Description: FIG. 9 is a graphical representation showing the cAMP yields [nitrogenic effect of bPTH (1-34].
100 nM bPTH(1-34) were used to stimulate cAMP synthesis of intact ROS 17/2.8 cells (cell density 1.3×10^6 cells/cm^2) in the presence of 1 mM IBMX for 10 min. cAMP yields were determined by radio assay. Based on the conditions mentioned, the cAMP basal value of non-stimulated cells corresponds to 8 pmol/well. This effect of bPTH(1-34) can be inhibited by an additional doses of 30 nM hPTH(28-48) up to about 50%; cf. FIG. 9.

hPTH(28-48): mid-regional PTH fragment 28-48, human source (LQDVHNFVALGAPLAPRDAGS; Parathyroid hormone; UniProt P01270 59-79, looked up, fragment)
total cell number [1]: 63,000 cells/ml | stimulation of renal adenylate cyclase (renal adenylate cyclase): does not stimulate renal adenylate cyclase | stimulation of renal adenylate cyclase (renal adenylate cyclase; listed as hPTh(28-48)): will not stimulate renal adenylate cyclase | EC50 ([2]; 3H-methylthymidine incorporation into total DNA, read-out: concentration for semi-maximum stimulation): 349 nM | increase in the incorporation of 3H-methylthymidine into total DNA by a factor ([2]; ratio induced / untreated control cultures, depending on concentration): 6 | inhibition of the cAMP synthesis stimulated by bPTH(1-34) (ROS 17/2.8 cells): about 50%

Reference: patent US5457092A, “Methods of promoting bone growth in mammals comprising administration of modified parathyroid hormone” (Gesellschaft fur Biotechnologische Forschung mbH (GBF), priority 1987, dated 1995)
